The values that follow come from patent US11730720B2, “ALK5 inhibitors” (THERAVANCE BIOPHARMA R&D IP, LLC, priority 2018, dated 2023).

The structures appear in SMILES notation.

The test system of test [1] is TGF-β-stimulated SMAD3 phosphorylation in BEAS-2B cells. In words: Cellular ALK5 potency assay, inhibition of TGF-β stimulated pSMAD3 formation in BEAS-2B cells. The class given is cell-based. The conditions noted are these: Homo sapiens, inhibition of TGF-β (10 ng/mL) stimulated pSMAD3 formation, 1 hour compound incubation, read-out: BEAS2B pIC50 (converted). In outline:
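Phospho-SMAD3 was quantified by AlphaLISA in lysates of human lung epithelial BEAS-2B cells. Compound was added 1 h (37 °C, HEPES/BSA-supplemented HBSS) before a 30 min challenge with 10 ng/mL TGF-β. Values are pIC50 relative to stimulated cells without compound.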

Test [2] has as its target T1, recombinant human ALK5 (TGF-βR1) protein (Homo sapiens, UniProt P36897).
T1 construct: purchased Life Technologies PR9075A
T1 sequence (P36897 34-503): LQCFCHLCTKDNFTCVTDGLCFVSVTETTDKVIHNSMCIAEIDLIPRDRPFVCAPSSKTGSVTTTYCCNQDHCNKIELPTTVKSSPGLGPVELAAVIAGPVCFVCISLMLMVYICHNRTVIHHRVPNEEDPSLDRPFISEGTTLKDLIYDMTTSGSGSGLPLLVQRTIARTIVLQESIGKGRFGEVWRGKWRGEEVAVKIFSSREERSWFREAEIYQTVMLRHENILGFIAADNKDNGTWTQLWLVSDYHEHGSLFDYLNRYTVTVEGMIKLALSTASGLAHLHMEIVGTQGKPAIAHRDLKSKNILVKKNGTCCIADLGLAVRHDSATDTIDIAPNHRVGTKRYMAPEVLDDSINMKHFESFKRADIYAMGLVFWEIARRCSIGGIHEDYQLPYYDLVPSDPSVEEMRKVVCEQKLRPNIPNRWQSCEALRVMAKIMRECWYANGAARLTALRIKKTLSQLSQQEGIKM
Description: Biochemical ALK5 (TGF-βR1) assay to measure pKi (LANCE Ultra ULight kinase assay). The following applies: apparent pKi, converted from pIC50 using the Cheng-Prusoff equation. In outline: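 TR-FRET kinase format: compound dose range 10 μM–25 pM equilibrated 60 min with human ALK5 and ULight-labelled topoisomerase 2α peptide in HEPES/MgCl2 buffer pH 7.5 with DTT. Reaction started with ATP (125 μM stock, 5× final), 60 min at 37° C, stopped with EDTA/Eu-anti-phospho antibody; pKi derived from pIC50 via Cheng-Prusoff.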
In general terms: In TR-FRET formats the signal depends on donor and acceptor labels being close together.

For `CNCCn1cc(-c2cnc3ccc(-c4c[nH]nc4-c4ccc(F)c(F)c4)nc3c2)cn1` [Compound 8-12, 2-(4-(6-(3-(3,4-difluorophenyl)-1H-pyrazol-4-yl)-1,5-naphthyridin-3-yl)-1H-pyrazol-1-yl)-N-methylethan-1-amine], the IC50 in test [1] is not above 20 nM. In addition, in test [2], the Ki was not above 0.0316 nM.
In the same order, the values of `Fc1ccc(-c2n[nH]cc2-c2ccc3ncc(-c4cn[nH]c4)cc3n2)cc1F` [Compound 8-13, 2-[3-(3,4-difluorophenyl)-1H-pyrazol-4-yl]-7-(1H-pyrazol-4-yl)-1,5-naphthyridine] are not above 20 nM and 0.398 to 3.16 nM.
In the case of `CNCCn1ccc(-c2cnc3ccc(-c4c[nH]nc4-c4ccc(F)c(F)c4)nc3c2)n1` [Compound 8-14, 2-[3-[6-[3-(3,4-difluorophenyl)-1H-pyrazol-4-yl]-1,5-naphthyridin-3-yl]pyrazol-1-yl]-N-methyl-ethanamine], the IC50 in test [1] is 25.1 to 158 nM. Further, the Ki in test [2] was 0.398 to 3.16 nM.
In the case of `Fc1ccc(-c2n[nH]cc2-c2ccc3ncc(-c4cnn(CC5CNC5)c4)cc3n2)cc1F` [Compound 8-15, 7-[1-(azetidin-3-ylmethyl)pyrazol-4-yl]-2-[3-(3,4-difluorophenyl)-1H-pyrazol-4-yl]-1,5-naphthyridine], the IC50 in test [1] is 25.1 to 158 nM. Also, the Ki in test [2] was not above 0.0316 nM.
Take `Cn1cccc(-c2cnc3ccc(-c4c[nH]nc4-c4ccc(F)c(F)c4)nc3c2)c1=O` [Compound 8-16, 3-[6-[3-(3,4-difluorophenyl)-1H-pyrazol-4-yl]-1,5-naphthyridin-3-yl]-1-methyl-pyridin-2-one]: the IC50 in test [1] was 25.1 to 158 nM. The Ki in test [2] is 3.98 to 31.6 nM.
Taken in the same sequence, the figures for `NCCn1cc(-c2cnc3ccc(-c4c[nH]nc4-c4ccc(F)c(F)c4)nc3c2)cn1` [Compound 8-17, 2-[4-[6-[3-(3,4-difluorophenyl)-1H-pyrazol-4-yl]-1,5-naphthyridin-3-yl]pyrazol-1-yl]ethanamine] were not above 20 nM and not above 0.0316 nM.
Taken in the same sequence, the figures for `O=C(O)Cn1cc(-c2cnc3ccc(-c4c[nH]nc4-c4ccc(F)c(F)c4)nc3c2)cn1` [Compound 8-18, 2-[4-[6-[3-(3,4-difluorophenyl)-1H-pyrazol-4-yl]-1,5-naphthyridin-3-yl]pyrazol-1-yl]acetic acid] were 25.1 to 158 nM and 0.398 to 3.16 nM.
For the molecule `NC1CC=C(c2cnc3ccc(-c4c[nH]nc4-c4ccc(F)c(F)c4)nc3c2)CC1` (stereo not drawn) [Compound 8-19, 4-[6-[3-(3,4-difluorophenyl)-1H-pyrazol-4-yl]-1,5-naphthyridin-3-yl]cyclohex-3-en-1-amine], in test [1], the IC50 is not above 20 nM. Moreover, the Ki in test [2] is 0.0398 to 0.316 nM.
Take `Fc1ccc(-c2n[nH]cc2-c2ccc3ncc(C4=CCNC4)cc3n2)cc1F` [Compound 8-20, 2-[3-(3,4-difluorophenyl)-1H-pyrazol-4-yl]-7-(2,5-dihydro-1H-pyrrol-3-yl)-1,5-naphthyridine]: the IC50 in test [1] was 25.1 to 158 nM. For the same molecule, in test [2], the Ki is 0.398 to 3.16 nM.
In the same order, the values of `OCCn1cc(-c2cnc3ccc(-c4c[nH]nc4-c4ccc(F)c(F)c4)nc3c2)cn1` [Compound 8-21, 2-(4-(6-(3-(3,4-difluorophenyl)-1H-pyrazol-4-yl)-1,5-naphthyridin-3-yl)-1H-pyrazol-1-yl)ethan-1-ol] are not above 20 nM and 0.0398 to 0.316 nM.
On to `CN1CC=C(c2cnc3ccc(-c4c[nH]nc4-c4ccc(F)c(F)c4)nc3c2)C1` [Compound 8-22, 2-(3-(3,4-difluorophenyl)-1H-pyrazol-4-yl)-7-(1-methyl-2,5-dihydro-1H-pyrrol-3-yl)-1,5-naphthyridine], for which the IC50 in test [1] is 25.1 to 158 nM. Further, in test [2], the Ki was 0.398 to 3.16 nM.
Taken in the same sequence, the figures for `CC(C)N1CC=C(c2cnc3ccc(-c4c[nH]nc4-c4ccc(F)c(F)c4)nc3c2)C1` [Compound 8-23, 2-[3-(3,4-difluorophenyl)-1H-pyrazol-4-yl]-7-(1-isopropyl-2,5-dihydropyrrol-3-yl)-1,5-naphthyridine] were 25.1 to 158 nM and 0.398 to 3.16 nM.
In the same order, the values of `CC(C)NC1CC=C(c2cnc3ccc(-c4c[nH]nc4-c4ccc(F)c(F)c4)nc3c2)CC1` (stereo not drawn) [Compound 8-24, 4-(6-(3-(3,4-difluorophenyl)-1H-pyrazol-4-yl)-1,5-naphthyridin-3-yl)-N-isopropylcyclohex-3-en-1-amine] are not above 20 nM and not above 0.0316 nM.
Taken in the same sequence, the figures for `CN(C)C1CC=C(c2cnc3ccc(-c4c[nH]nc4-c4ccc(F)c(F)c4)nc3c2)CC1` (stereo not drawn) [Compound 8-25, 4-[6-[3-(3,4-difluorophenyl)-1H-pyrazol-4-yl]-1,5-naphthyridin-3-yl]-N,N-dimethyl-cyclohex-3-en-1-amine] were 25.1 to 158 nM and 0.0398 to 0.316 nM.
Take `Fc1ccc(-c2n[nH]cc2-c2ccc3ncc(C4=CCC(NCc5ccccc5)CC4)cc3n2)cc1F` (stereo not drawn) [Compound 8-26, N-benzyl-4-[6-[3-(3,4-difluorophenyl)-1H-pyrazol-4-yl]-1,5-naphthyridin-3-yl]cyclohex-3-en-1-amine]: the IC50 in test [1] is 25.1 to 158 nM. Also, the Ki in test [2] is 0.0398 to 0.316 nM.
Taken in the same sequence, the figures for `CNCCn1cc(-c2cnc3ccc(-c4c[nH]nc4-c4ccc(F)c(F)c4)nc3c2)nn1` [Compound 8-27, 2-(4-(6-(3-(3,4-difluorophenyl)-1H-pyrazol-4-yl)-1,5-naphthyridin-3-yl)-1H-1,2,3-triazol-1-yl)-N-methylethan-1-amine] were 25.1 to 158 nM and 0.0398 to 0.316 nM.
Taken in the same sequence, the figures for `Fc1ccc(-c2[nH]cnc2-c2ccc3ncc(NCCN4CCNCC4)cc3n2)cc1F` [Compound 9-1, 6-(5-(3,4-difluorophenyl)-1H-imidazol-4-yl)-N-(2-(piperazin-1-yl)ethyl)-1,5-naphthyridin-3-amine] were 200 to 1260 nM and 0.398 to 3.16 nM.
Taken in the same sequence, the figures for `CC(C)N1CCN(CCNc2cnc3ccc(-c4nc[nH]c4-c4ccc(F)c(F)c4)nc3c2)CC1` [Compound 9-2, 6-[5-(3,4-difluorophenyl)-1H-imidazol-4-yl]-N-[2-(4-isopropylpiperazin-1-yl)ethyl]-1,5-naphthyridin-3-amine] were 25.1 to 158 nM and 3.98 to 31.6 nM.
On to `CNCCn1cc(-c2cnc3ccc(-c4nc[nH]c4-c4ccc(F)c(F)c4)nc3c2)cn1` [Compound 9-3, 2-(4-(6-(5-(3,4-difluorophenyl)-1H-imidazol-4-yl)-1,5-naphthyridin-3-yl)-1H-pyrazol-1-yl)-N-methylethan-1-amine], for which the IC50 in test [1] is not above 20 nM. In addition, the Ki in test [2] is not above 0.0316 nM.
With `Fc1ccc(-c2n[nH]cc2-c2ccc3ncc(-c4cn[nH]c4)cc3n2)c(F)c1` [Compound 10-1, 2-(3-(2,4-difluorophenyl)-1H-pyrazol-4-yl)-7-(1H-pyrazol-4-yl)-1,5-naphthyridine], the IC50 in test [1] is not above 20 nM. In test [2], the Ki is 0.0398 to 0.316 nM.
For the molecule `CC(C)N1CCN(CCNc2cnc3ccc(-c4c[nH]nc4-c4ccc(F)cc4F)nc3c2)CC1` [Compound 10-2, 6-(3-(2,4-difluorophenyl)-1H-pyrazol-4-yl)-N-(2-(4-isopropylpiperazin-1-yl)ethyl)-1,5-naphthyridin-3-amine], the IC50 in test [1] was 25.1 to 158 nM. For the same molecule, the Ki in test [2] was 3.98 to 31.6 nM.
Taken in the same sequence, the figures for `CN1CCN(C2CCN(c3cnc4ccc(-c5c[nH]nc5-c5ccccc5F)nc4c3)CC2)CC1` [Compound 11-1, 2-(3-(2-fluorophenyl)-1H-pyrazol-4-yl)-7-(4-(4-methylpiperazin-1-yl)piperidin-1-yl)-1,5-naphthyridine] were 25.1 to 158 nM and 0.398 to 3.16 nM.
In the same order, the values of `NC1CCN(c2cnc3ccc(-c4c[nH]nc4-c4ccccc4F)nc3c2)C1` (stereo not drawn) [Compound 11-2, 1-(6-(3-(2-fluorophenyl)-1H-pyrazol-4-yl)-1,5-naphthyridin-3-yl)pyrrolidin-3-amine] are 25.1 to 158 nM and 0.398 to 3.16 nM.
As to `CC(C)N1CCN(c2cnc3ccc(-c4c[nH]nc4-c4ccccc4F)nc3c2)CC1` [Compound 11-3, 2-[3-(2-fluorophenyl)-1H-pyrazol-4-yl]-7-(4-isopropylpiperazin-1-yl)-1,5-naphthyridine], in test [1], the IC50 was 25.1 to 158 nM. Also, the Ki in test [2] is 3.98 to 31.6 nM.
In the same order, the values of `Fc1ccccc1-c1n[nH]cc1-c1ccc2ncc(-c3cccnc3)cc2n1` [Compound 11-4, 2-[3-(2-fluorophenyl)-1H-pyrazol-4-yl]-7-(3-pyridyl)-1,5-naphthyridine] are 25.1 to 158 nM and 3.98 to 31.6 nM.
Taken in the same sequence, the figures for `COC(=O)c1cnc2ccc(-c3[nH]nnc3-c3ccccc3F)nc2c1` [Compound 12-1, methyl 6-(4-(2-fluorophenyl)-1H-1,2,3-triazol-5-yl)-1,5-naphthyridine-3-carboxylate] were 200 to 1260 nM and 3.98 to 31.6 nM.
Taken in the same sequence, the figures for `Fc1ccccc1-c1[nH]nnc1-c1ccc2ncc(-c3c[nH]nc3C(F)(F)F)cc2n1` [Compound 12-2, 2-[5-(2-fluorophenyl)-1H-triazol-4-yl]-7-[3-(trifluoromethyl)-1H-pyrazol-4-yl]-1,5-naphthyridine] were 25.1 to 158 nM and 3.98 to 31.6 nM.
